According to US8957091B2, “Use of quinolinone derivatives as a research tool” (Centre National de la Recherche Scientifique, priority 2010, dated 2015):
Entries after “also recorded” stand apart in the source; their conditions may differ. Where two headings read alike, the source gives them in different places. Blank lines part the entries; values can stand above or below the compound they belong to.

Columns and labels:
Type in all cases: cell-based
[1] = biological target: T1, Smo2 sites (Mus musculus, UniProt P56726); assay: Inhibition of C3H10T1/2 differentiation (alkaline phosphatase activity) induced by compound 1 or compound 6; conditions: for selectivity between Smo1 and Smo2 sites (in words): Smo1 stimulated by SAG, Smo2 stimulated by compound 1; for C3H10T1/2 cell differentiation IC50 Smo1/IC50 Smo2: ratio of mean IC50 values, Smo1 stimulated by SAG 0.1 μM, Smo2 by compound 1 1 μM
T1 construct: host or cells: C3H10T1/2
T1 sequence (P56726 33-793): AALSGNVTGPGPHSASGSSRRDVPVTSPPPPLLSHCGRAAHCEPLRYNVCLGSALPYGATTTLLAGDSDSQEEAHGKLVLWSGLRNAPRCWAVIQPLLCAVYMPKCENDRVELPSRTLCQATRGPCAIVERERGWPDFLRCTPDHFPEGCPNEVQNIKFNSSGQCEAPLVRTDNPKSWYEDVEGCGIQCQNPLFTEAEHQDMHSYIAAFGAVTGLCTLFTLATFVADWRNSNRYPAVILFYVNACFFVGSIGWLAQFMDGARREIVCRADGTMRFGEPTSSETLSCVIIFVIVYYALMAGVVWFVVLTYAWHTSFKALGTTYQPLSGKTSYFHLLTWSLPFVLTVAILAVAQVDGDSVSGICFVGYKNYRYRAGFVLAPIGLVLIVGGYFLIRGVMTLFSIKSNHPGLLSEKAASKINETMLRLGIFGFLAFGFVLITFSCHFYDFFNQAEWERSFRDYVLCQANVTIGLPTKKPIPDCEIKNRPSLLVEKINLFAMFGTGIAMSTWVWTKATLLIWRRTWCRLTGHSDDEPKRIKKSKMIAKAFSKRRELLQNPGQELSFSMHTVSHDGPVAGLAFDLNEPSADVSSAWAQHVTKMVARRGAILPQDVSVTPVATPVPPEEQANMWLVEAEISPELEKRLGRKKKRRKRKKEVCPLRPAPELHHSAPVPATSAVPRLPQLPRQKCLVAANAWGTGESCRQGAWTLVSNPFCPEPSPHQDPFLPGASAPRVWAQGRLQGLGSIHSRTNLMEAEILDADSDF
Procedure: (§1) The C3H10T1/2 cells were seeded onto 96-well plates at a density of 5×10^3 cells per well, 24 hours before the addition of the test compounds at a concentration ranging from 10 nM to 10 μM in DMEM culture medium supplemented with 10% of fetal calf serum. The tests were carried out in quadruplicate. The plates were then incubated for 5-6 days at a temperature of 37° C. under an atmosphere of 5% CO2. The cells were then washed in cold phosphate buffer (phosphate buffered saline: PBS) and then lysed by sonication at 4° C. in 50 μl of a solution containing 0.9% of NaCl and 0.2% of Triton X-100.
(§2) The alkaline phosphatase in the resulting lysates was then measured according to the method described by Pepinsky et al. (Pepinsky et al. 1998). After the addition of […] of reaction buffer (200 mM Tris-HCL; pH 10.5; 0.4 M of 2-amino-2-methylpropanol and 8 mM of MgCl2) and of 50 μl of substrate (4 mM of disodium p-nitrophenyl phosphate), the lysates were incubated at 37° C. for 30-60 min and then the optical density was read at a wavelength of 415 nm.

[2] = biological target: T2, Smo1 sites (Mus musculus, UniProt P56726); assay: Inhibition of C3H10T1/2 differentiation (alkaline phosphatase activity) induced by SAG; conditions: for IC50: alkaline phosphatase activity induced by SAG (0.1 μM)
T2 construct: host or cells: C3H10T1/2
T2 sequence (P56726 33-793): as above
Procedure: as §1, §2

[3] = test system: C3H10T1/2 mesenchymal stem cells; assay: Modulation by IWR1 of differentiation stimulated by compound 1 or SAG
Procedure: For the experiments in the presence of forskolin, compound 1 (1 μM) and SAG (0.3 μM) were used to stimulate differentiation in the presence of increasing concentrations (1, 3 and 10 μM) of forskolin (Sigma). The IWR1 compound (Sigma), for its part, was used at 10 μM on an activation by compound 1 at 1 μM or SAG at 0.1 μM. The alkaline phosphatase activity was measured as previously.

[4] = test system: C3H10T1/2 cells; assay: Activation of osteogenic differentiation of C3H10T1/2 cells (alkaline phosphatase activity); conditions: for stimulation of osteogenesis: induction of alkaline phosphatase after 6 days
Procedure: The pluripotent fibroblast cell line C3H10T1/2 (ATCC) was cultured under the conditions recommended by the ATCC. The stimulation of the differentiation of these cells was carried out using increasing concentrations of compounds according to the methods described by Chen et al. and Frank-Kamenetsky et al. (Chen et al. 2002; Frank-Kamenetsky et al. 2002). The activation by the compounds of general formula (I) causes differentiation of the cell line and enables the latter to express alkaline phosphatase. It was thus possible to measure the activity of the compounds via the measurement of alkaline phosphatase activity. By way of comparison, the activity of the SAG compound (Chen et al. 2002), an Smo activator, was tested under the same conditions as those used to test the compounds of general formula (I).
as §1, §2

[5] = alkaline phosphatase activity induced by compound 1 (1 μM), C3H10T1/2 cells, read-out: Smo2 IC50
[6] = alkaline phosphatase activity induced by compound 1 (1 μM), mean ± SEM of 2 to 6 experiments, read-out: IC50 μM, C3H10T1/2, Compound 1
[7] = alkaline phosphatase activity induced by compound 6 (3 μM), mean ± SEM of 2 to 6 experiments, read-out: IC50 μM, C3H10T1/2, Compound 6
[8] = antagonist at 10 μM, induced by compound 1 (1 μM), C3H10T1/2 cells
[9] = C3H 10T1/2, antagonist at 10 μM, induced by compound 1 (1 μM), C3H10T1/2 cells, read-out: Smo2 Inhibition 10 μM
[10] = C3H 10T1/2, antagonist at 10 μM, induced by SAG (0.1 μM), C3H10T1/2 cells, read-out: Smo1 Inhibition 10 μM

inhibition at 10 µM [1, 9]: 95%
selectivity between Smo1 and Smo2 sites (in words) [1]: comparable affinities
C3H10T1/2 cell differentiation IC50 Smo1/IC50 Smo2 [1]: 2.5
IC50 ([1]; response induced by compound 1, read-out: affinity (IC50) for compound 1): 0.32 µM
IC50 ([1]; response induced by compound 6, read-out: affinity (IC50) for compound 6): 0.4 µM
inhibition at 10 µM [2, 10]: 100%
IC50 ([2]; C3H10T1/2 cells): 130 ± 50 nM
SMILES: COc1cc(C(=O)NC(=O)Nc2cccc(NC(=O)c3ccccc3)c2)cc(OC)c1OC [MRT-14]

C3H10T1/2 cell differentiation IC50 Smo1/IC50 Smo2 [1]: 0.08
SMILES: COc1cc(C(=O)NC(=S)Nc2cccc(NC(=O)c3ccc(-c4ccc(F)cc4)cc3)c2)cc(OC)c1OC [MRT-79]
selectivity between Smo1 and Smo2 sites (in words) [1]: more selective with respect to Smo2 sites than the Smo1 sites

inhibition at 10 µM [1, 9]: 100%
IC50 [1, 6]: 0.06 µM
IC50 [1, 7]: 0.06 µM
times more selective with respect to Smo2 sites ([1]; compound 1 versus SAG stimulation): 1.3 times
C3H10T1/2 cell differentiation IC50 Smo1/IC50 Smo2 [1]: 0.9
inhibition at 10 µM [2, 10]: 100%
IC50 ([2]; C3H10T1/2 cells): 60 ± 20 nM
SMILES: COc1cc(C(=O)NC(=S)Nc2ccc(C)c(NC(=O)c3ccc(-c4ccccc4)cc3)c2)cc(OC)c1OC [MRT-81]

inhibition at 10 µM [1, 9]: 71%
selectivity between Smo1 and Smo2 sites (in words) [1]: comparable affinities
IC50 [1, 5]: 0.06 ± 0.02 µM
C3H10T1/2 cell differentiation IC50 Smo1/IC50 Smo2 [1]: 1.5
inhibition at 10 µM [2, 10]: 100%
IC50 ([2]; C3H10T1/2 cells): 40 ± 10 nM
SMILES: Cc1nn(-c2ccccc2)c(C)c1/C=N/N1CCN(Cc2ccccc2)CC1 [SANT-1]

The next lines start with the compound.

SMILES: COc1cccc(CN(C(=O)CC(C)(C)C)[C@H]2C[C@@H](C(=O)N3CCNCC3)N(Cc3ccc4c(c3)OCO4)C2)c1 [Cur61414]
selectivity between Smo1 and Smo2 sites (in words) [1]: much more selective with respect to Smo1 sites than Smo2 sites
IC50 [1, 5]: 5.7 ± 1.6 µM
IC50 [1, 6]: 5.7 ± 1.6 µM
IC50 [1, 7]: 7 ± 1 µM
Smo2 Inhibition 10 μM [1, 8]: weaker inhibition
C3H10T1/2 cell differentiation IC50 Smo1/IC50 Smo2 [1]: 17
selectivity for the Smo1 site compared with the Smo2 site ([2]; SAG versus compound 1 stimulation): 17 fold

SMILES: CC1=C2C[C@H]3[C@@H](CC=C4C[C@@H](O)CC[C@@]43C)[C@@H]2CC[C@]12O[C@@H]1C[C@H](C)CN[C@H]1[C@H]2C [Cyclopamine, cyclopamine]
inhibition at 10 µM ([1]; C3H 10T1/2, read-out: Smo2 Inhibition 10 μM): 48%
Smo2 Inhibition 10 μM [1, 8]: weaker inhibition
inhibition at 10 µM ([2]; C3H 10T1/2, read-out: Smo1 Inhibition 10 μM): 98%
Smo1 Inhibition 10 μM ([2]; antagonist at 10 μM, induced by SAG (0.1 μM), C3H10T1/2 cells): complete inhibition

SMILES: O=C(Nc1cccc2cccnc12)c1ccc(N2C(=O)[C@@H]3[C@H](C2=O)[C@@H]2C=C[C@H]3C2)cc1 [IWR1]
effect on the activity of SAG ([3]; IWR1 10 μM, SAG at 0.1 μM): does not modify; also recorded: does not affect
effect on the activity of compound 1 (in words) ([3]; IWR1 10 μM, compound 1 at 1 μM): inhibits the activity of compound 1
reduction of the activity of compound 1 ([3]; IWR1 10 μM, compound 1 at 1 μM): 60%
IC50 ([3]; dose-response curve of compound 1 with IWR1, read-out: IC50 with respect to alkaline phosphatase inhibition): 2500 nM

SMILES: CCCCCCn1c(=O)c(C(=O)Nc2ccc(C(=O)OCCC)cc2)c(O)c2ccccc21 [compound 1, propyl 4-(1-hexyl-4-hydroxy-2-oxo-1,2-dihydroquinoline-3-carboxamido)benzoate]
maximum stimulation compared with SAG ([4]; dose-response curves produced in parallel): greater than that of the Smo agonist SAG
stimulation of osteogenesis [4]: have the capacity to stimulate osteogenesis

SMILES: CCCCCCn1c(=O)c(C(=O)Nc2ccc(C(=O)OC(C)(C)C)cc2)c(O)c2ccccc21 [compound 6, tert-butyl 4-(1-hexyl-4-hydroxy-2-oxo-1,2-dihydroquinoline-3-carboxamido)benzoate]
stimulation of osteogenesis [4]: have the capacity to stimulate osteogenesis
